Experimental data: paper PMC7265341, “Quantifying CDK inhibitor selectivity in live cells” (Nature Communications, 2020)
Read-outs that look alike come from different tables or passages of the source.

Experiments:
CDK1/Cyclin E1 = CDK1/Cyclin E1 (Homo sapiens, UniProt P06493); test: NanoBRET live-cell target engagement, CDK1-NanoLuc/Cyclin E1 in HEK-293; assay type: binding; conditions: CDK1/E1, 10µM
CDK2/Cyclin E1 = CDK2/Cyclin E1 (Homo sapiens, UniProt P24941); test: NanoBRET live-cell target engagement, CDK2-NanoLuc/Cyclin E1 in HEK-293; assay type: binding; conditions: CDK2/E1
CDK3/Cyclin E1 = CDK3/Cyclin E1 (Homo sapiens, UniProt Q00526); test: NanoBRET live-cell target engagement, CDK3-NanoLuc/Cyclin E1 in HEK-293; assay type: binding; conditions: 10µM
Sequence of CDK3/Cyclin E1 (Q00526 whole entry): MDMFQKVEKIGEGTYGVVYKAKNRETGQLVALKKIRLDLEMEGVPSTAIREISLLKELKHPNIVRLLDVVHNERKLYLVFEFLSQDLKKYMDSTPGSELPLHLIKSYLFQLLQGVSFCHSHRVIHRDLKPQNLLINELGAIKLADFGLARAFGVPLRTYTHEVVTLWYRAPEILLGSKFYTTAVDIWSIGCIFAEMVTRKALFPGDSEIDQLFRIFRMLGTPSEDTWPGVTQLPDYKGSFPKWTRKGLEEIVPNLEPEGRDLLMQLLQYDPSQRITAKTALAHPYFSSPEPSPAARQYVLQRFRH
Sequence of CDK3/Cyclin E1 (P24864 whole entry partner): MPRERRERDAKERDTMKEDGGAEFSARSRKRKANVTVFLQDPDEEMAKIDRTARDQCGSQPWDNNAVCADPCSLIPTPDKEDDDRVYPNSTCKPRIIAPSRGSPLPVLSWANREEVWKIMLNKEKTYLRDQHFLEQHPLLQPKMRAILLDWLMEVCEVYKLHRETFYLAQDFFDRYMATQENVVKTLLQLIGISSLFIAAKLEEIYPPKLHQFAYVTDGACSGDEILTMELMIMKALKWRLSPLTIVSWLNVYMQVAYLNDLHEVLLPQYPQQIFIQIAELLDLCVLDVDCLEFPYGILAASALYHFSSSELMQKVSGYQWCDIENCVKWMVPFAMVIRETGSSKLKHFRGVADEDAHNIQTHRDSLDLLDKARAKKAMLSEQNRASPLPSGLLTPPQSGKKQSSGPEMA

CDK4/Cyclin D1 = CDK4/Cyclin D1 (Homo sapiens, UniProt P11802); test: NanoBRET live-cell target engagement, NanoLuc-CDK4/Cyclin D1 in HEK-293; assay type: binding; conditions: CDK4/D1
CDK5/CDK5R1 = CDK5/CDK5R1 (Homo sapiens, UniProt Q00535); test: NanoBRET live-cell target engagement, CDK5-NanoLuc/CDK5R1 in HEK-293; assay type: binding; conditions: CDK5/CDK5R1, 10µM
Sequence of CDK5/CDK5R1 (Q00535 whole entry): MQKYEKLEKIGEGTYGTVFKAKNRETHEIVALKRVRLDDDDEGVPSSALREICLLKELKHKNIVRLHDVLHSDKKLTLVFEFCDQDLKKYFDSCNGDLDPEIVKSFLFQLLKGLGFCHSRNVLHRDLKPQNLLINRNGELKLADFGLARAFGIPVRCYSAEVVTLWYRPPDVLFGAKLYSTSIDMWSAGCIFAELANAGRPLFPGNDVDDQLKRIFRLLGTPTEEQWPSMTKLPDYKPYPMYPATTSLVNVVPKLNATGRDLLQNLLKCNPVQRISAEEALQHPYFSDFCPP
Sequence of CDK5/CDK5R1 (Q15078 whole entry partner): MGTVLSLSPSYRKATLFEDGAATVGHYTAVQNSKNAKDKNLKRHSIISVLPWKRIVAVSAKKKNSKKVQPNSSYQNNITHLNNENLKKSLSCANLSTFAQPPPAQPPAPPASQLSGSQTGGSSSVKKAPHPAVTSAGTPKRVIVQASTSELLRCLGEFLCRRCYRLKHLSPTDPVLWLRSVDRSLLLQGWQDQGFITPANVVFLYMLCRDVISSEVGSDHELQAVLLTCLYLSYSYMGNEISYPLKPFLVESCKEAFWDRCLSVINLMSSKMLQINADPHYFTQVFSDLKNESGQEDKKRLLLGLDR

CDK6/Cyclin D1 = CDK6/Cyclin D1 (Homo sapiens, UniProt Q00534); test: NanoBRET live-cell target engagement, NanoLuc-CDK6/Cyclin D1 in HEK-293; assay type: binding; conditions: CDK6/D1
CDK7 = CDK7 (Homo sapiens, UniProt P50613); test: NanoBRET live-cell target engagement, NanoLuc-CDK7 in HEK-293; assay type: binding; conditions: 10µM
CDK8/Cyclin C = CDK8/Cyclin C (Homo sapiens, UniProt P49336); test: NanoBRET live-cell target engagement, NanoLuc-CDK8/Cyclin C in HEK-293; assay type: binding; conditions: CDK8/C, 10µM
Sequence of CDK8/Cyclin C (P49336 whole entry): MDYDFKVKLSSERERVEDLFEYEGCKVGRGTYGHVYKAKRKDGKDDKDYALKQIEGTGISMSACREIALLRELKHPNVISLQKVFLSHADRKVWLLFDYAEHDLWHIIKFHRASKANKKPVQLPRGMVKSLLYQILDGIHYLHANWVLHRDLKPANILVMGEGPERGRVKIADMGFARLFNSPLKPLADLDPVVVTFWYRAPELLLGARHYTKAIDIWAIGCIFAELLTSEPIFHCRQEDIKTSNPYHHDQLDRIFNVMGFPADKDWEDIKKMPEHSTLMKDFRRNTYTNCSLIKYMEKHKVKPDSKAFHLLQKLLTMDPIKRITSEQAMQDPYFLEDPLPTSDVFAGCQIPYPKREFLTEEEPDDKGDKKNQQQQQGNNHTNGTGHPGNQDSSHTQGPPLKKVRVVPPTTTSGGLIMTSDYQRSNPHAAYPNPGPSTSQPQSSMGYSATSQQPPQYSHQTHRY
Sequence of CDK8/Cyclin C (P24863 whole entry partner): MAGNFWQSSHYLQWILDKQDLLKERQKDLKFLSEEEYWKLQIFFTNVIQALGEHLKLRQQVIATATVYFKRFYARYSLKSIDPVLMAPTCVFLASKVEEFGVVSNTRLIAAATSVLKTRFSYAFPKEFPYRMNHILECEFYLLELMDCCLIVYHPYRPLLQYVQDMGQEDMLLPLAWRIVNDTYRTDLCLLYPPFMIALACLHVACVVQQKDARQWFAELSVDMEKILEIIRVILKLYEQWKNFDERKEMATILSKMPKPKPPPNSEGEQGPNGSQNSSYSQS

CDK9/Cyclin K = CDK9/Cyclin K (Homo sapiens, UniProt P50750); test: NanoBRET live-cell target engagement, NanoLuc-CDK9/Cyclin K in HEK-293; assay type: binding; conditions: CDK9/K, 10µM
CDK11A/Cyclin L2 = target: T1, CDK11A/Cyclin L2 (Homo sapiens, UniProt Q9UQ88); test: NanoBRET live-cell target engagement, CDK11A-NanoLuc/Cyclin L2 in HEK-293; assay type: binding; conditions: 10µM
T1 sequence (Q9UQ88 1-783): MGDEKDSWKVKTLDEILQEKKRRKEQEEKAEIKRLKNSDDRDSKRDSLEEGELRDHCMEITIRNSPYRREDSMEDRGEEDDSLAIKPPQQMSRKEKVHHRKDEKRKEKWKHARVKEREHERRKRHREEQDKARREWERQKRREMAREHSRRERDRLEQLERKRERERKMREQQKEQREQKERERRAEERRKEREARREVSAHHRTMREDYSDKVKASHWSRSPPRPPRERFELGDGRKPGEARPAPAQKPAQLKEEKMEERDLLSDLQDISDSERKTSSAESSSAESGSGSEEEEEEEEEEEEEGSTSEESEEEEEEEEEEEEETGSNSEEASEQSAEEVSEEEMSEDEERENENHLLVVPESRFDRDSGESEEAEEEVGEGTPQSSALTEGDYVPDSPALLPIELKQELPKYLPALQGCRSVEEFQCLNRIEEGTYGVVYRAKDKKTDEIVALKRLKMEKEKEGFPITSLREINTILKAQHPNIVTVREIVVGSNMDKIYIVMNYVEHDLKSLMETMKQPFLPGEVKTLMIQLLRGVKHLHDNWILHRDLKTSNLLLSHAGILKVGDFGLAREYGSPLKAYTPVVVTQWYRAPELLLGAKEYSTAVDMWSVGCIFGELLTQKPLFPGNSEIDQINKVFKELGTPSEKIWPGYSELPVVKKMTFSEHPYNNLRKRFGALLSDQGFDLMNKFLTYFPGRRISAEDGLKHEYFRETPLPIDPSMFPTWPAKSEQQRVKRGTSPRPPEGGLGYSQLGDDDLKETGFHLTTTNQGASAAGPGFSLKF

CDK11B/Cyclin L2 = CDK11B/Cyclin L2 (Homo sapiens, UniProt P21127); test: NanoBRET live-cell target engagement, CDK11B-NanoLuc/Cyclin L2 in HEK-293; assay type: binding; conditions: 10µM
CDK12/Cyclin K = CDK12/Cyclin K (Homo sapiens, UniProt Q9NYV4); test: NanoBRET live-cell target engagement, CDK12-NanoLuc/Cyclin K in HEK-293; assay type: binding; conditions: 10µM
CDK13/Cyclin K = CDK13/Cyclin K (Homo sapiens, UniProt Q14004); test: NanoBRET live-cell target engagement, CDK13-NanoLuc/Cyclin K in HEK-293; assay type: binding; conditions: CDK13/K, 10µM
Sequence of CDK13/Cyclin K (O75909 whole entry): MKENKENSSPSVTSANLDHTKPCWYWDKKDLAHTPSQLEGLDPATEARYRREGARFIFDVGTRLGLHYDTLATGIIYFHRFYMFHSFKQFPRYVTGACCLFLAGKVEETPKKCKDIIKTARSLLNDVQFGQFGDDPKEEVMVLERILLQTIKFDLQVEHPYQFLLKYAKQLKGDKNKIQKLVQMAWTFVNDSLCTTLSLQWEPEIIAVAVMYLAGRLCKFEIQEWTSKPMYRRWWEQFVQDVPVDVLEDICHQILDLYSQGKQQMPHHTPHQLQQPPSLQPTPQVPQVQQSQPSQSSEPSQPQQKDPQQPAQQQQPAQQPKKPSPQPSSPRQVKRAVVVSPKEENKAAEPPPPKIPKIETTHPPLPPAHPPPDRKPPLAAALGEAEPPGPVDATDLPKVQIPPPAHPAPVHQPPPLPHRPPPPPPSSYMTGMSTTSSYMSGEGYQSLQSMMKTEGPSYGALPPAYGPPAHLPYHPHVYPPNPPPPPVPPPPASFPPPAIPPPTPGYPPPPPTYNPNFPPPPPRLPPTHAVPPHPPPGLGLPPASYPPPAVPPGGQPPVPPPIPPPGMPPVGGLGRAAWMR
Sequence of CDK13/Cyclin K (Q14004 other isoform, or with tags, fused parts or gaps): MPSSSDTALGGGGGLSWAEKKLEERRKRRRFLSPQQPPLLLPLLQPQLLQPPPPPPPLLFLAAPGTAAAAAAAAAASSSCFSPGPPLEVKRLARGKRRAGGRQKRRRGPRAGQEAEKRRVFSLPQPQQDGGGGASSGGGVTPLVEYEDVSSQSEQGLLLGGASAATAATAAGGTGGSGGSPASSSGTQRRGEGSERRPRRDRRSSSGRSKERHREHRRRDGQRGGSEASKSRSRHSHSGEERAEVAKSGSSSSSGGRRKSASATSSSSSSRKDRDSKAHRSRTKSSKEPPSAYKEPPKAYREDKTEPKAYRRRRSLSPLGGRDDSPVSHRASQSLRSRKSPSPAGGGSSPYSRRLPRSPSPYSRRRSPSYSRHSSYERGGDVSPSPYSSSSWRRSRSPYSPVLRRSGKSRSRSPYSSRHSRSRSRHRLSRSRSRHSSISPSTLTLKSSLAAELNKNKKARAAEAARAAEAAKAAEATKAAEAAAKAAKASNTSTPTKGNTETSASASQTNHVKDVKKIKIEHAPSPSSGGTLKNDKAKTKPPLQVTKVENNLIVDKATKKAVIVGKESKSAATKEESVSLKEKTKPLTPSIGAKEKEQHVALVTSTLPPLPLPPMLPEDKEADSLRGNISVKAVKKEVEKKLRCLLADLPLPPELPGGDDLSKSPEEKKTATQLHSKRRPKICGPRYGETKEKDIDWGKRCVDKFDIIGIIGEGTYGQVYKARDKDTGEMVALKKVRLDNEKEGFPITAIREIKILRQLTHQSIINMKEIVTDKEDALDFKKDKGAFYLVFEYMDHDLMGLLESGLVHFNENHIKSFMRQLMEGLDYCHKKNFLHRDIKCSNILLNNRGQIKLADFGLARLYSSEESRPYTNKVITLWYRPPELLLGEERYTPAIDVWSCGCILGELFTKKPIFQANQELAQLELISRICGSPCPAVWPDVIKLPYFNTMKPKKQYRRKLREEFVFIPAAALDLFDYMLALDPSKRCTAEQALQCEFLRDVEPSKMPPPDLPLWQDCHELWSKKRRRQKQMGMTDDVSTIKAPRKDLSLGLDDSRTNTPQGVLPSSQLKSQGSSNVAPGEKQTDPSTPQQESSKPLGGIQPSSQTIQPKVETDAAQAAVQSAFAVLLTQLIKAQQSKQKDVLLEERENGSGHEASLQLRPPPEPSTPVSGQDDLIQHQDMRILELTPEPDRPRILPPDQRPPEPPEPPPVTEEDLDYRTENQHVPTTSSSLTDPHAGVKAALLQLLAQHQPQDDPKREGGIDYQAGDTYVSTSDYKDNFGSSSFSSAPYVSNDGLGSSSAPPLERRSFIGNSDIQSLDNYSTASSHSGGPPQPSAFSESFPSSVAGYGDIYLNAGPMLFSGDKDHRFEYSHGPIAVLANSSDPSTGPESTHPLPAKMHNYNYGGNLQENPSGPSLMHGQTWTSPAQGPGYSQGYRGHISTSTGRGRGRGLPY

CDK15/Cyclin Y = CDK15/Cyclin Y (Homo sapiens, UniProt Q96Q40); test: NanoBRET live-cell target engagement, NanoLuc-CDK15/Cyclin Y in HEK-293; assay type: binding; conditions: for IC50: CDK15/Y
CDK16/Cyclin Y = CDK16/Cyclin Y (Homo sapiens, UniProt Q00536); test: NanoBRET live-cell target engagement, CDK16-NanoLuc/Cyclin Y in HEK-293; assay type: binding; conditions: for IC50: CDK16/Y
CDK17/Cyclin Y = CDK17/Cyclin Y (Homo sapiens, UniProt Q00537); test: NanoBRET live-cell target engagement, CDK17-NanoLuc/Cyclin Y in HEK-293; assay type: binding; conditions: 10µM
CDK18/Cyclin Y = CDK18/Cyclin Y (Homo sapiens, UniProt Q07002); test: NanoBRET live-cell target engagement, CDK18-NanoLuc/Cyclin Y in HEK-293; assay type: binding; conditions: 10µM
Sequence of CDK18/Cyclin Y (Q07002 whole entry): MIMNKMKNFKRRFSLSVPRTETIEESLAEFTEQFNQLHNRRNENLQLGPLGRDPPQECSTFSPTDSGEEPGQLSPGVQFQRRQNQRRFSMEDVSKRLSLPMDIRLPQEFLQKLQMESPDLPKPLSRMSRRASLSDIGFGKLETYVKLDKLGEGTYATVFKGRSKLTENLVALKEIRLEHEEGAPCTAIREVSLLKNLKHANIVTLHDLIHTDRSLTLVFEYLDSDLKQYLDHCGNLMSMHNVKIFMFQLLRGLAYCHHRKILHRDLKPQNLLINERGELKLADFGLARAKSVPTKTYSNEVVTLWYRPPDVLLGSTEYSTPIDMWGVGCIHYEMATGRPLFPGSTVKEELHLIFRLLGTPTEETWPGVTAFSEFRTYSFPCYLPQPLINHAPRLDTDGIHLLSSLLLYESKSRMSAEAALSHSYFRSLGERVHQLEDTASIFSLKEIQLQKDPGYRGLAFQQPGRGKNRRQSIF
Sequence of CDK18/Cyclin Y (Q8ND76 whole entry partner): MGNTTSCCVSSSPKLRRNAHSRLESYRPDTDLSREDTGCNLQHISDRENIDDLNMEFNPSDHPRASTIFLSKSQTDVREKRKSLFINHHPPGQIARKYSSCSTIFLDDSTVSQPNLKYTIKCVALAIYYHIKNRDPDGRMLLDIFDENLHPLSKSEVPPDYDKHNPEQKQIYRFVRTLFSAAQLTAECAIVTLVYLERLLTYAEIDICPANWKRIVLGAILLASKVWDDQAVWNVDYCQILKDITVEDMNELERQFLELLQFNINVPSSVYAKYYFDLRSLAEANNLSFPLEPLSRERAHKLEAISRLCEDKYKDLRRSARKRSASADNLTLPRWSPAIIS

CDK20/Cyclin H = CDK20/Cyclin H (Homo sapiens, UniProt Q8IZL9); test: NanoBRET live-cell target engagement, NanoLuc-CDK20/Cyclin H in HEK-293; assay type: binding; conditions: 10µM
CDK19/Cyclin C = CDK19/Cyclin C (Homo sapiens, UniProt Q9BWU1); test: NanoBRET live-cell target engagement, NanoLuc-CDK19/Cyclin C in HEK-293; conditions: 10µM
[1] = average of replicates, read-out: Inhibition at 10µM (%) Average
[2] = read-out: Inhibition at 10µM (%) Replicate 1
[3] = read-out: Inhibition at 10µM (%) Replicate 2
[4] = n=3 average ± SEM, n=2 average to 2 significant figures, read-out: IC50 (nM) Average*
[5] = read-out: IC50 (nM) Replicate 1
[6] = read-out: IC50 (nM) Replicate 2
[7] = read-out: IC50 (nM) Replicate 3

C[C@H]1CC[C@H](n2c3cnccc3c3cnc(Nc4ccc5c(n4)CCN(C(=O)CO)C5)nc32)CC1 [AMG 925]
inhibition at 10 µM (CDK1/Cyclin E1; [1]): 34.5% | inhibition at 10 µM (CDK1/Cyclin E1; [2]): 45.4% | inhibition at 10 µM (CDK1/Cyclin E1; [3]): 23.6% | inhibition at 10 µM (CDK2/Cyclin E1; [1]): 63.9% | inhibition at 10 µM (CDK2/Cyclin E1; [2]): 40.8% | inhibition at 10 µM (CDK2/Cyclin E1; [3]): 87% | IC50 (CDK2/Cyclin E1; [4]): 310 ± 70 nM | IC50 (CDK2/Cyclin E1; [5]): 171 nM | IC50 (CDK2/Cyclin E1; [6]): 400 nM | IC50 (CDK2/Cyclin E1; [7]): 370 nM | inhibition at 10 µM (CDK3/Cyclin E1; read-out: Inhibition at 10µM (%) Average, CDK3/E1, average of replicates): 54.2% | inhibition at 10 µM (CDK3/Cyclin E1; read-out: Inhibition at 10µM (%) Replicate 1, CDK3/E1): 39.2% | inhibition at 10 µM (CDK3/Cyclin E1; read-out: Inhibition at 10µM (%) Replicate 2, CDK3/E1): 69.3% | inhibition at 10 µM (CDK4/Cyclin D1; [1]): 92.7% | inhibition at 10 µM (CDK4/Cyclin D1; [2]): 97.7% | inhibition at 10 µM (CDK4/Cyclin D1; [3]): 87.7% | IC50 (CDK4/Cyclin D1; [4]): 6 ± 2 nM | IC50 (CDK4/Cyclin D1; [5]): 3.2 nM | IC50 (CDK4/Cyclin D1; [6]): 4.9 nM | IC50 (CDK4/Cyclin D1; [7]): 11 nM | inhibition at 10 µM (CDK5/CDK5R1; [1]): 22.1% | inhibition at 10 µM (CDK5/CDK5R1; [2]): 24.7% | inhibition at 10 µM (CDK5/CDK5R1; [3]): 19.6% | inhibition at 10 µM (CDK6/Cyclin D1; [1]): 99.1% | inhibition at 10 µM (CDK6/Cyclin D1; [2]): 98.6% | inhibition at 10 µM (CDK6/Cyclin D1; [3]): 99.5% | IC50 (CDK6/Cyclin D1; [4]): 7 ± 3 nM | IC50 (CDK6/Cyclin D1; [5]): 2.5 nM | IC50 (CDK6/Cyclin D1; [6]): 3.9 nM | IC50 (CDK6/Cyclin D1; [7]): 13 nM | inhibition at 10 µM (CDK7; read-out: Inhibition at 10µM (%) Average, CDK7, average of replicates): 27.8% | inhibition at 10 µM (CDK7; read-out: Inhibition at 10µM (%) Replicate 1, CDK7): 10.8% | inhibition at 10 µM (CDK7; read-out: Inhibition at 10µM (%) Replicate 2, CDK7): 44.9% | inhibition at 10 µM (CDK8/Cyclin C; [1]): 12.6% | inhibition at 10 µM (CDK8/Cyclin C; [2]): 13.8% | inhibition at 10 µM (CDK8/Cyclin C; [3]): 11.5% | inhibition at 10 µM (CDK9/Cyclin K; [1]): 39.8% | inhibition at 10 µM (CDK9/Cyclin K; [2]): 12.7% | inhibition at 10 µM (CDK9/Cyclin K; [3]): 67% | inhibition at 10 µM (CDK11A/Cyclin L2; read-out: Inhibition at 10µM (%) Average, CDK11a/L2, average of replicates): 6.7% | inhibition at 10 µM (CDK11A/Cyclin L2; read-out: Inhibition at 10µM (%) Replicate 1, CDK11a/L2): -0.9% | inhibition at 10 µM (CDK11A/Cyclin L2; read-out: Inhibition at 10µM (%) Replicate 2, CDK11a/L2): 14.4% | inhibition at 10 µM (CDK11B/Cyclin L2; read-out: Inhibition at 10µM (%) Average, CDK11b/L2, average of replicates): 8.5% | inhibition at 10 µM (CDK11B/Cyclin L2; read-out: Inhibition at 10µM (%) Replicate 1, CDK11b/L2): 5.1% | inhibition at 10 µM (CDK11B/Cyclin L2; read-out: Inhibition at 10µM (%) Replicate 2, CDK11b/L2): 11.9% | inhibition at 10 µM (CDK12/Cyclin K; read-out: Inhibition at 10µM (%) Average, CDK12/K, average of replicates): 8% | inhibition at 10 µM (CDK12/Cyclin K; read-out: Inhibition at 10µM (%) Replicate 1, CDK12/K): 7.8% | inhibition at 10 µM (CDK12/Cyclin K; read-out: Inhibition at 10µM (%) Replicate 2, CDK12/K): 8.2% | inhibition at 10 µM (CDK13/Cyclin K; [1]): -2.5% | inhibition at 10 µM (CDK13/Cyclin K; [2]): 3.8% | inhibition at 10 µM (CDK13/Cyclin K; [3]): -8.8% | IC50 (CDK15/Cyclin Y; [4]): 820 ± 50 nM | IC50 (CDK15/Cyclin Y; [5]): 842 nM | IC50 (CDK15/Cyclin Y; [6]): 720 nM | IC50 (CDK15/Cyclin Y; [7]): 901 nM | inhibition at 10 µM (CDK15/Cyclin Y; read-out: Inhibition at 10µM (%) Average, CDK15/Y, average of replicates): 55.3% | inhibition at 10 µM (CDK15/Cyclin Y; read-out: Inhibition at 10µM (%) Replicate 1, CDK15/Y): 50.5% | inhibition at 10 µM (CDK15/Cyclin Y; read-out: Inhibition at 10µM (%) Replicate 2, CDK15/Y): 60.1% | IC50 (CDK16/Cyclin Y; [4]): 200 ± 100 nM | IC50 (CDK16/Cyclin Y; [5]): 103 nM | IC50 (CDK16/Cyclin Y; [6]): 420 nM | IC50 (CDK16/Cyclin Y; [7]): 188 nM | inhibition at 10 µM (CDK16/Cyclin Y; read-out: Inhibition at 10µM (%) Replicate 1, CDK16/Y): 64.2% | inhibition at 10 µM (CDK16/Cyclin Y; read-out: Inhibition at 10µM (%) Replicate 2, CDK16/Y): 56.2% | inhibition at 10 µM (CDK17/Cyclin Y; read-out: Inhibition at 10µM (%) Average, CDK17/Y, average of replicates): 43.6% | inhibition at 10 µM (CDK17/Cyclin Y; read-out: Inhibition at 10µM (%) Replicate 1, CDK17/Y): 42.5% | inhibition at 10 µM (CDK17/Cyclin Y; read-out: Inhibition at 10µM (%) Replicate 2, CDK17/Y): 44.7% | inhibition at 10 µM (CDK18/Cyclin Y; read-out: Inhibition at 10µM (%) Average, CDK18/Y, average of replicates): 28.7% | inhibition at 10 µM (CDK18/Cyclin Y; read-out: Inhibition at 10µM (%) Replicate 1, CDK18/Y): 11.9% | inhibition at 10 µM (CDK18/Cyclin Y; read-out: Inhibition at 10µM (%) Replicate 2, CDK18/Y): 45.6% | inhibition at 10 µM (CDK20/Cyclin H; read-out: Inhibition at 10µM (%) Replicate 1, CDK20/H): 24.8% | inhibition at 10 µM (CDK20/Cyclin H; read-out: Inhibition at 10µM (%) Replicate 2, CDK20/H): 6.8% | inhibition at 10 µM (CDK19/Cyclin C; read-out: Inhibition at 10µM (%) Average, CDK19/C, average of replicates): 16.1% | inhibition at 10 µM (CDK19/Cyclin C; read-out: Inhibition at 10µM (%) Replicate 1, CDK19/C): 17.8% | inhibition at 10 µM (CDK19/Cyclin C; read-out: Inhibition at 10µM (%) Replicate 2, CDK19/C): 14.4%
